Data from patent US20080261994A1, “CYCLOPROPANE COMPOUNDS AND PHARMACEUTICAL USE THEREOF” (Japan Tobacco Inc., priority 2003, published 2008).
Like-named read-outs stand apart in the source and are kept apart here.

What was measured:
Assay type in all cases: biochemical
aggrecanase-1 = target: T1, aggrecanase-1 (Homo sapiens, UniProt O75173); experiment: Aggrecanase-1 inhibitory action (Particle Assay, GAG release from aggrecan-containing polyacrylamide particles)
T1 sequence (O75173 213-837): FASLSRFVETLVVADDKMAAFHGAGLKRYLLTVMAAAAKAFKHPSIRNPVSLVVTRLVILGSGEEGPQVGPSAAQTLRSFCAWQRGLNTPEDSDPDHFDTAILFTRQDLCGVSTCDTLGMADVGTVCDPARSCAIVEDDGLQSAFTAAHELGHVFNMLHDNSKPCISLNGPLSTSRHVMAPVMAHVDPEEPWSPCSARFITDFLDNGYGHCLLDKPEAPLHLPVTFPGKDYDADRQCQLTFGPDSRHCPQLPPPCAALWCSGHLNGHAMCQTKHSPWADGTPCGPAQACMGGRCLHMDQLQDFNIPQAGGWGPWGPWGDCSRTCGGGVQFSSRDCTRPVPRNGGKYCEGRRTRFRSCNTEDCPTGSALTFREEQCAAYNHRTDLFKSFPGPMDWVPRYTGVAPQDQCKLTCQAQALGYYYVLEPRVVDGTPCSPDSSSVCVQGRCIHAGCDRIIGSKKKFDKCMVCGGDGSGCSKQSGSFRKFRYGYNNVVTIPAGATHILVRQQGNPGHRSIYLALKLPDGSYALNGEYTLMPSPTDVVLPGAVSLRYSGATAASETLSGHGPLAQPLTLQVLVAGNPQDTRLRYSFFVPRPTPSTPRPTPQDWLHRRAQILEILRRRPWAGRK
Outline: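 Enzyme and compound incubated with aggrecan-containing polyacrylamide particles in Tris-HCl buffer at 37° C for 15 h. Released GAG in supernatant measured with 1,9-dimethylmethylene blue at 595 nm against chondroitin sulfate standard; % inhibition from enzyme-free and inhibitor-free wells, reported as TC50 (μM).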

MMP-1 = target: T2, MMP-1 (Homo sapiens, UniProt P03956); experiment: MMP-1 inhibitory action (Type I collagen Activity Measurement kit, FITC-labeled collagen type I)
T2 sequence (P03956 100-469): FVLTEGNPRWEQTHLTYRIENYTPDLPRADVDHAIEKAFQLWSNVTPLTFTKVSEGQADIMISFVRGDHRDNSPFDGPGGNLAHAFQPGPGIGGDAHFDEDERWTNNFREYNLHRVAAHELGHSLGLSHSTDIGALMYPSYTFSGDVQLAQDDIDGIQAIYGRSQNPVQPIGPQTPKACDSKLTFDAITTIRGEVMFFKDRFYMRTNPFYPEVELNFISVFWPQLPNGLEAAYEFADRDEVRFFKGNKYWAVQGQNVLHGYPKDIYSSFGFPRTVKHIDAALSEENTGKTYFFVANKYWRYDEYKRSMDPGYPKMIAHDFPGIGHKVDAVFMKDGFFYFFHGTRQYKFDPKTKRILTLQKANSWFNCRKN

Recombinant Human MMP-13 = target: T3, Recombinant Human MMP-13 (Homo sapiens, UniProt P45452); experiment: MMP-13 inhibitory activity (MMP-13 specific fluorescent substrate with quencher)
T3 construct: purchased R&D systems 511-MM
Outline: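 Recombinant human MMP-13 with test compound, reaction started with quenched fluorogenic peptide 7-MCA-Pro-CHA-Gly-NVal-His-Ala-DPA in Tris-HCl buffer, 1 h at 25 °C, stopped with acetic acid. Fluorescence at Ex 325/Em 405 nm; % inhibition versus enzyme-free and inhibitor-free wells, reported as IC50 (μM).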

[1] = aggrecanase-1 inhibitory action, read-out: IC50 AG1 (Experimental Example 1)
[2] = MMP-1 inhibitory action, FITC-labeled collagen type I, 37° C. for 3 hr, read-out: IC50 MMP1 (Experimental Example 2)
[3] = Recombinant Human MMP-13, fluorescent substrate, 25° C. for 1 h, read-out: IC50 MMP13 (Experimental Example 3)
[4] = Experimental Example 1, read-out: IC50 AG1
[5] = Experimental Example 2, read-out: IC50 MMP1
[6] = Experimental Example 3, read-out: IC50 MMP13

| IC50 (aggrecanase-1; [1]) | IC50 (MMP-1; [2]) | IC50 (Recombinant Human MMP-13; [3]) | IC50 (aggrecanase-1; [4]) | IC50 (MMP-1; [5]) | IC50 (Recombinant Human MMP-13; [6]) | Compound |
| --- | --- | --- | --- | --- | --- | --- |
| < 0.1 µM | ≥ 1 µM | < 0.1 µM | – | – | – | O=C(O)[C@]1(NS(=O)(=O)c2ccc(-c3cc(CF)on3)s2)C[C@@H]1c1ccccc1 [Example 2-98] |
| – | – | – | < 1 µM | < 1 µM | < 0.1 µM | CN(C)c1cc(-c2ccc(S(=O)(=O)N[C@@]3(C(=O)O)C[C@]3(C)c3ccccc3)s2)no1 [Example 2-423] |
| ≥ 10 µM | ≥ 10 µM | ≥ 1 µM | – | – | – | O=C(O)C1(NS(=O)(=O)N2CCN(c3nc4ccccc4s3)CC2)CC1c1ccccc1 (stereo not drawn) [Example 2-157] |
| < 1 µM | ≥ 1 µM | < 0.1 µM | – | – | – | O=C(Cc1ccccc1C1CC1(NS(=O)(=O)c1ccc(-c2cc(C(F)(F)F)on2)s1)C(=O)O)N1CCOCC1 (stereo not drawn) [Example 2-243] |
| – | – | – | ≥ 1 µM | ≥ 10 µM | ≥ 10 µM | C[C@]1(c2ccccc2)C[C@@]1(NS(=O)(=O)c1ccc(N2CCC(F)(F)C2)s1)C(=O)O [Example 2-467] |
| ≥ 10 µM | ≥ 10 µM | ≥ 1 µM | – | – | – | COc1ccc(N2CCN(S(=O)(=O)NC3(C(=O)O)CC3c3ccccc3)CC2)cc1 (stereo not drawn) [Example 2-64] |
| – | – | – | < 0.1 µM | ≥ 1 µM | < 1 µM | CC1[C@H](c2ccccc2)[C@]1(NS(=O)(=O)c1ccc(-c2ccc3nonc3c2)s1)C(=O)O (stereo partly drawn) [Example 2-517] |
| < 0.1 µM | ≥ 10 µM | < 0.1 µM | – | – | – | CN(C)C(=O)Cc1cccc(C2CC2(NS(=O)(=O)c2ccc(-c3ccc(Cl)cc3)s2)C(=O)O)c1 (stereo not drawn) [Example 2-189] |
| < 1 µM | ≥ 10 µM | < 1 µM | – | – | – | O=C(O)C1(NS(=O)(=O)c2ccc(-c3ccc(Cl)cc3)s2)CC1c1cccc(OCc2ccccc2)c1 (stereo not drawn) [Example 2-36] |
| – | – | – | ≥ 1 µM | ≥ 10 µM | ≥ 1 µM | O=C(O)C1(NS(=O)(=O)c2ccc(-c3cc(C(F)(F)F)on3)s2)CC1(CN1CCCC1)c1ccccc1 (stereo not drawn) [Example 2-329] |
| < 0.1 µM | ≥ 1 µM | < 0.1 µM | – | – | – | CC(=O)OCCCC1(c2ccccc2)CC1(NS(=O)(=O)c1ccc(-c2cc(C(F)(F)F)on2)s1)C(=O)O (stereo not drawn) [Example 2-264] |
| – | – | – | < 0.1 µM | < 0.1 µM | < 0.1 µM | CC(O)c1cnn(-c2ccc(S(=O)(=O)N[C@@]3(C(=O)O)C(C)[C@@H]3c3ccccc3)s2)c1 (stereo partly drawn) [Example 2-547] |
| – | – | – | < 1 µM | < 1 µM | < 0.1 µM | C[C@]1(c2ccccc2)C[C@@]1(NS(=O)(=O)c1cn2cc(-c3ccccc3)nc2s1)C(=O)O [Example 2-518] |
| < 0.1 µM | ≥ 10 µM | < 0.1 µM | – | – | – | CN(C)c1cccc([C@H]2C[C@@]2(NS(=O)(=O)c2ccc(-c3ccc(Cl)cc3)s2)C(=O)O)c1 [Example 2-176] |
| – | – | – | < 1 µM | ≥ 10 µM | < 1 µM | O=C(NCC1(c2ccccc2)CC1(NS(=O)(=O)c1ccc(-c2ccc(Cl)cc2)s1)C(=O)O)C1CCCCC1 (stereo not drawn) [Example 2-380] |
| < 1 µM | ≥ 1 µM | < 0.1 µM | – | – | – | O=C(CN1CCOCC1)Nc1cccc(C2CC2(NS(=O)(=O)c2ccc(-c3cc(C(F)(F)F)on3)s2)C(=O)O)c1 (stereo not drawn) [Example 2-260] |
| – | – | – | < 0.1 µM | < 1 µM | < 0.1 µM | Cc1cc(-c2ccc(S(=O)(=O)NC3(C(=O)O)C4CCCc5ccccc5C43)s2)no1 (stereo not drawn) [Example 2-375] |
| – | – | – | < 1 µM | ≥ 10 µM | ≥ 1 µM | CC1(c2ccc(F)cc2)CC1(NS(=O)(=O)c1ccc(-c2cc(C(F)(F)F)on2)s1)C(=O)O (stereo not drawn) [Example 2-340] |
| ≥ 10 µM | ≥ 10 µM | < 1 µM | – | – | – | O=C(O)C1(NS(=O)(=O)N2CCN(c3ccc(F)cc3)CC2)CC1c1ccccc1 (stereo not drawn) [Example 2-67] |
| < 1 µM | ≥ 10 µM | < 1 µM | – | – | – | CC(C)C1CC1(NS(=O)(=O)c1ccc(-c2ccc(Cl)cc2)s1)C(=O)O (stereo not drawn) [Example 2-59] |

| IC50 (aggrecanase-1; [1]) | IC50 (MMP-1; [2]) | IC50 (Recombinant Human MMP-13; [3]) | IC50 (aggrecanase-1; [4]) | IC50 (MMP-1; [5]) | IC50 (Recombinant Human MMP-13; [6]) | Compound |
| --- | --- | --- | --- | --- | --- | --- |
| ≥ 10 µM | ≥ 10 µM | ≥ 1 µM | – | – | – | O=C(O)C1(NS(=O)(=O)N2CCC(Oc3ccc(C(F)(F)F)cc3)CC2)CC1c1ccccc1 (stereo not drawn) [Example 2-144] |
| – | – | – | < 0.1 µM | ≥ 1 µM | < 0.1 µM | CN(C)C(=O)OCCC1(c2ccccc2)CC1(NS(=O)(=O)c1ccc(-c2ccc(Cl)cc2)s1)C(=O)O (stereo not drawn) [Example 2-303] |
| – | – | – | < 0.1 µM | ≥ 1 µM | < 0.1 µM | C[C@]1(c2ccccc2)C[C@@]1(NS(=O)(=O)c1ccc(-c2ccc(C(F)(F)F)cc2)s1)C(=O)O [Example 2-572] |
| – | – | – | ≥ 1 µM | ≥ 1 µM | ≥ 1 µM | C[C@]1(c2ccccc2)C[C@@]1(NS(=O)(=O)c1ccc(/C=C/C(F)(F)F)s1)C(=O)O [Example 2-562] |
| – | – | – | ≥ 1 µM | ≥ 10 µM | ≥ 1 µM | C[C@]1(c2ccccc2)C[C@@]1(NS(=O)(=O)c1ccc(-c2cccc(C(F)(F)CO)c2)s1)C(=O)O [Example 2-606] |
| – | – | – | < 1 µM | ≥ 10 µM | < 0.1 µM | CCOC(=O)NCC1(c2ccccc2)CC1(NS(=O)(=O)c1ccc(-c2ccc(Cl)cc2)s1)C(=O)O (stereo not drawn) [Example 2-384] |
| ≥ 10 µM | ≥ 10 µM | ≥ 10 µM | – | – | – | O=C(O)C1(NS(=O)(=O)c2ccc(Cl)s2)CC1c1ccccc1 (stereo not drawn) [Example 2-82] |
| ≥ 10 µM | ≥ 10 µM | < 1 µM | – | – | – | O=C(Nc1ccccc1)c1ccc(S(=O)(=O)NC2(C(=O)O)CC2c2ccccc2)s1 (stereo not drawn) [Example 2-96] |
| – | – | – | < 0.1 µM | ≥ 1 µM | < 1 µM | CC1[C@H](c2ccccc2)[C@]1(NS(=O)(=O)c1ccc(-c2cc(C(F)(F)F)no2)s1)C(=O)O (stereo partly drawn) [Example 2-338] |
| < 1 µM | ≥ 1 µM | < 1 µM | – | – | – | O=C(O)C1(NS(=O)(=O)c2ccc(-c3ccc(Cl)cc3)cc2)CC1c1cccc(Oc2ccc(Cl)cc2)c1 (stereo not drawn) [Example 1-11] |
| < 1 µM | ≥ 10 µM | < 1 µM | – | – | – | O=C(CN1CCOCC1)Nc1cccc(C2CC2(NS(=O)(=O)c2ccc(-c3ccc(Cl)cc3)s2)C(=O)O)c1 (stereo not drawn) [Example 2-261] |
| – | – | – | < 1 µM | ≥ 1 µM | < 1 µM | C[C@]1(c2ccccc2)C[C@@]1(NS(=O)(=O)c1ccc(-c2ccc(C#N)c(F)c2)s1)C(=O)O [Example 2-593] |
| – | – | – | ≥ 1 µM | ≥ 10 µM | ≥ 10 µM | O=C1OCC2C(c3ccccc3)C12NS(=O)(=O)c1ccc(-c2cc(C(F)(F)F)on2)s1 (stereo not drawn) [Example 2-312] |
| ≥ 1 µM | ≥ 10 µM | ≥ 1 µM | – | – | – | CC(C)(O)C#Cc1ccc(S(=O)(=O)N[C@@]2(C(=O)O)C[C@@H]2c2ccccc2)s1 [Example 2-130] |
| – | – | – | ≥ 1 µM | ≥ 1 µM | < 1 µM | CC1[C@H](c2ccccc2)[C@]1(NS(=O)(=O)N1Cc2ccc(Br)cc2C1)C(=O)O (stereo partly drawn) [Example 2-505] |
| – | – | – | ≥ 1 µM | < 1 µM | < 0.1 µM | C[C@]1(c2ccccc2)C[C@@]1(NS(=O)(=O)c1ccc(-n2cc(C(F)(F)F)cn2)cc1)C(=O)O [Example 2-506] |
| – | – | – | < 1 µM | < 1 µM | < 0.1 µM | CCC1[C@@H](c2ccccc2)[C@@]1(NS(=O)(=O)c1ccc(-c2cc(C(F)(F)F)on2)s1)C(=O)O (stereo partly drawn) [Example 2-327] |
| – | – | – | < 0.1 µM | ≥ 1 µM | < 0.1 µM | CC1[C@H](c2ccccc2)[C@]1(NS(=O)(=O)c1ccc2c(c1)Cc1cc(Br)ccc1-2)C(=O)O (stereo partly drawn) [Example 2-286] |
| – | – | – | < 0.1 µM | < 0.1 µM | < 0.1 µM | CC1[C@H](c2ccccc2)[C@]1(NS(=O)(=O)c1ccc(-n2cc(I)cn2)s1)C(=O)O (stereo partly drawn) [Example 2-543] |
| < 0.1 µM | ≥ 1 µM | < 0.1 µM | – | – | – | O=C(O)[C@]1(NS(=O)(=O)c2ccc(-c3ccc(Cl)cc3)s2)C[C@@H]1c1ccccc1 [Example 1-85] |
